Laboratory results as given in US5382670A, “Platelet activating factor antagonists” (priority 1993, dated 1995).
Counter-ions that a name gives are not always drawn. Like-named read-outs stand apart in the source and are kept apart here.

Target: PAF receptor (Oryctolagus cuniculus, UniProt G1TEI7)
Assay: PAF receptor binding assay: inhibition of specific [3H]C18-PAF binding to rabbit platelet membranes
Experimental: The ability of representative compounds of the present invention to inhibit PAF activity was determined in an in vitro test using the following method.
Citrated whole rabbit blood was obtained from Pel-Freez (Rogers, AR). Rabbit platelets were prepared by centrifugation and washing. The platelets were lysed by freeze-thawing and sonication; platelet membranes were prepared by centrifugation and washing. Final membrane preparations were stored frozen in 10 mM Tris/5 mM MgCl2 /2 mM EDTA (TME buffer, pH 7.0) with 0.25M sucrose added for membrane stabilization.
The standard PAF receptor binding assay contained 10 μg platelet membrane protein, 0.6 nM [^3 H]C18 -PAF (from Amersham or New England Nuclear; specific activity 120-180 Ci/mmol), with and without test compound, in "binding buffer" consisting of TME with 0.25% bovine serum albumin added (Sigma, RIA grade). The final volume of the assay was 100 μl. The assay was conducted in Millititre-GV™ (Millipore Corp.) filtration plates; incubation time was for 60 minutes at room temperature (22°-23° C.). "Specific binding" was operationally defined as the arithmetic difference between "total binding" of 0.6 nM [^3 H]C18 -PAF (in the abasence of added PAF) and "nonspecific binding" (in the presence of 1 μM PAF). After the prescribed incubation, platelet membranes were filtered under vacuum, and washed with 1 milliliter of "binding buffer". The filters were dried and removed. The bound radioactivity was quantitated with a Berthold TLC-Linear Analyzer model LB2842.
Dose-response curves of inhibition of specific [^3 H]C18 -PAF binding by test compounds were conducted in triplicate, with at least four doses covering the active range. Experiments were repeated at least once. IC50 values (concentration producing 50% inhibition) were determined by point-to-point evaluation. Ki values of inhibitory binding constants were calculated according to the method of Cheng and Prusoff [Biochem. Pharmacol. 22 (1973) 3099-3108] whereby [formula]
The values of Ki for representative compounds of the present invention appear in Table 1.

[1] = 0.6 nM [3H]C18-PAF, 60 min, 22-23 °C, Ki from IC50 (Cheng and Prusoff), read-out: Ki (PAF Receptor Binding Activity)
[2] = Ki (PAF Receptor Binding Activity), 0.6 nM [3H]C18-PAF, 60 min, 22-23 °C, Ki from IC50 (Cheng and Prusoff)

Sequence of PAF receptor (G1TEI7 1-342): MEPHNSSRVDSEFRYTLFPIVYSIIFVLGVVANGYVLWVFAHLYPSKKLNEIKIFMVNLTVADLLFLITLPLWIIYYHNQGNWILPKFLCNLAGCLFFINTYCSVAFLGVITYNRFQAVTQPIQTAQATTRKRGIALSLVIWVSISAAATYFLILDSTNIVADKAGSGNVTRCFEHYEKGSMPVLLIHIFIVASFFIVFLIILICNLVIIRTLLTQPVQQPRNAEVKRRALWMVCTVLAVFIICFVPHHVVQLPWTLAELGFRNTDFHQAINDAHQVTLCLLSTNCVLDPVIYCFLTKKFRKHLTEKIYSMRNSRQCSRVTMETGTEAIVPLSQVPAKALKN

Row | Compound | Ki [1] [nM] | Ki [2] [nM] | other results
1 | CN(C)C(=O)n1cc(C(=O)[C@@H]2CS[C@@H](c3cccnc3)N2C(=O)C(F)(F)F)c2ccccc21 (relative stereo) [Example 106, trans-1-dimethylcarbamoyl-3-[2-(3-pyridinyl)-3-trifluoroacetylthiazolid-4-oyl]indole] | 80 | – | –
2 | COC(=O)c1ccc2c(C(=O)C3CSC(c4cccnc4)N3)c[nH]c2c1 (centres unmarked) [Example 122, 3-[2-(3-pyridinyl)thiazolid-4-oyl]-6-carbomethoxyindole] | – | 400 | –
3 | O=C(c1cn(S(=O)(=O)c2ccccc2)c2ccccc12)C1CSC(c2cccnc2)S1 (centres unmarked) [Example 32, 1-phenylsulfonyl 3-[2-(3-pyridinyl)dithiolan-4-oyl]indole oxalate] | 1000 | – | –
4 | Cc1ccc2c(C(=O)C3CSC(c4cccnc4)N3)cn(C(=O)OC(C)(C)C)c2c1 (centres unmarked) [Example 81, 1-tert-butoxycarbonyl-3-[2-(3-pyridinyl)thiazolid-4-oyl]-6-methylindole oxalate] | 2 | – | –
5 | N#Cc1ccc2c(ccn2C(=O)C2CSC(c3cccnc3)N2)c1 (centres unmarked) [Example 10, 1-[2-(3-pyridinyl)thiazolid-4-oyl]-5-cyanoindole dihydrochloride] | – | 2100 | –
6 | CCN(CC)C(=O)n1cc(C(=O)C2CSC(c3cccnc3)N2)c2ccccc21 (centres unmarked) [Example 48, 1-diethylcarbamoyl-3-[2-(3-pyridinyl)thiazolid-4-oyl]indole] | 1 | – | –
7 | CC(=O)N1C(C(=O)c2cn(C(=O)OC(C)(C)C)c3ccccc23)CSC1c1cccnc1 (centres unmarked) [Example 57, 1-tert-butoxycarbonyl-3-[2-(3-pyridinyl)-3-acetylthiazolid-4-oyl]indole] | 10 | – | –
8 | CN(C)C(=O)n1cc(C(=O)C2CSC(c3cccnc3)N2S(C)(=O)=O)c2ccccc21 (centres unmarked) [Example 112, 1-dimethylcarbamoyl-3-[2-(3-pyridinyl)-3-methylsulfonylthiazolid-4-oyl]indole] | 4800 | – | –
9 | O=C(c1c[nH]c2ccc(OCc3ccccc3)cc12)C1CSC(c2cccnc2)N1 (centres unmarked) [Example 23, 3-(2-(3-pyridinyl)thiazolid-4-oyl])-5-phenylmethoxyindole oxalate] | 23 | – | –
10 | O=C(c1c[nH]c2cc(OCc3cccnc3)ccc12)C1CSC(c2cccnc2)N1 (centres unmarked) [Example 76] | 30 | – | –
11 | CN(C)C(=O)n1cc(C(=O)[C@@H]2CSC(c3cccnc3)N2C=O)c2ccccc21 (stereo partly drawn) [Example 96, trans-1-dimethylcarbamoyl-3-[2-(3-pyridinyl)-3-formylthiazolid-4-oyl]indole] | 150 | – | –
12 | CN(C)C(=O)n1cc(C(=O)C2CSC(c3cccnc3)N2)c2ccc(C#Cc3ccccc3)cc21 (centres unmarked) [Example 78] | 2 | – | –
13 | CN(C)C(=O)n1cc(C(=O)[C@@H]2CS[C@H](c3cccnc3)N2C=O)c2ccccc21 (relative stereo) [Example 97, cis-1-Dimethylcarbamoyl-3-[2-(3-pyridinyl)-3-formylthiazolid-4-oyl]indole] | 150 | – | –
14 | CNC(=O)Cn1cc(C(=O)C2CSC(c3cccnc3)N2)c2ccccc21 (centres unmarked) [Example 117, 1-(N-methylcarbamoylmethyl)-3-[2-(3-pyridinyl)thiazolid-4-oyl]indole] | – | 3 | –
15 | Cc1ccc2c(C(=O)C3CSC(c4cccnc4)N3)c[nH]c2c1 (centres unmarked) [Example 80, 3-[2-(3-pyridinyl)thiazolid-4-oyl]-6-methylindole] | – | 3 | –
16 | CC(=O)N1C(C(=O)c2cn(C(=O)N(C)C)c3cc(OCc4ccccc4)ccc23)CSC1c1cccnc1 (centres unmarked) [Example 101, oxalate] | 2200 | – | –
17 | Cc1[nH]c2ccccc2c1C(=O)C1CSC(c2cccnc2)N1 (centres unmarked) [Example 39] | – | 23 | –
18 | O=C(O)Cn1cc(C(=O)C2CSC(c3cccnc3)N2)c2ccccc21 (centres unmarked) [Example 120, 1-carboxymethyl-3-[2-(3-pyridinyl)thiazolid-4-oyl]indole] | – | 19 | –
19 | Cn1cc(C(=O)C2CSC(c3cccnc3)N2)c2ccccc21 (centres unmarked) [Example 22, 1-methyl-3-[2-3-pyridinyl)thiazolid-4-oyl]indole dihydrochloride] | – | 13 | –
20 | CC(C)(C)OC(=O)n1cc(C(=O)[C@@H]2CS[C@H](c3cccnc3)S2)c2ccccc21 (relative stereo) [Example 29, cis-1-tert-butoxycarbonyl-3-[2-(3-pyridinyl)dithiolan-4-oyl]indole hydrochloride] | 180 | – | –
21 | Cc1ccc2c(c1)cc(C)n2C(=O)C1CSC(c2cccnc2)N1 (centres unmarked) [Example 4, 1-[2-(3-pyridinyl)thiazolid-4-oyl]-2,5-dimethylindole] | – | 46 | –

Row | Compound | Ki [1] [nM] | Ki [2] [nM] | other results
22 | O=C(c1c[nH]c2cc(C#Cc3ccccc3)ccc12)C1CSC(c2cccnc2)N1 (centres unmarked) [Example 77, 3-[2-(3-pyridinyl)thiazolid-4-oyl]-6-phenylethynylindole] | 9 | – | –
23 | CN(C)C(=O)n1cc(C(=O)C2CSC(c3cccnc3)N2)c2ccc(-c3ccccc3)cc21 (centres unmarked) [Example 87, 1-dimethylcarbamoyl-3-[2-(3-pyridinyl)thiazolid-4-oyl]-6-phenylindole] | 4 | – | –
24 | CC(C)(C)NC(=O)n1cc(C(=O)C2CSC(c3cccnc3)N2)c2ccccc21 (centres unmarked) [Example 54] | 9 | – | –
25 | COC(=O)CCn1cc(C(=O)C2CSC(c3cccnc3)N2)c2ccccc21 (centres unmarked) [Example 118, 1-carbomethoxyethyl-3-[2-(3-pyridinyl)thiazolid-4-oyl]indole] | – | 5 | –
26 | CCS(=O)(=O)n1cc(C(=O)C2CSC(c3cccnc3)N2)c2ccccc21 (centres unmarked) [Example 62, 1-ethylsulfonyl-3-[2-(3-pyridinyl)thiazolid-4-oyl]indole] | 18 | – | –
27 | O=C(c1c[nH]c2cc(O)ccc12)C1CSC(c2cccnc2)N1 (centres unmarked) [Example 88, 3-[2-(3-pyridinyl)thiazolid-4-oyl]-6-hydroxyindole] | – | 150 | –
28 | CCS(=O)(=O)n1cc(C(=O)C2CSC(c3cccnc3)N2)c2ccc(OCc3ccccc3)cc21 (centres unmarked) [Example 73, 1-ethylsulfonyl-3-[2-(3-pyridinyl)thiazolid-4-oyl]-6-phenylmethoxyindole] | 8 | – | –
29 | O=C(C1CSC(c2cccnc2)N1)n1ccc2c(Br)cccc21 (centres unmarked) [Example 6, 1-[2-(3-pyridinyl)thiazolid-4-oyl]-4-bromoindole dihydrochloride] | – | 53 | –
30 | Cc1c(C(=O)C2CSC(c3cccnc3)N2)c2ccccc2n1C(=O)OC(C)(C)C (centres unmarked) [Example 40, 1-tert-butoxycarbonyl-2-methyl-3-[2-(3-pyridinyl)thiazolid-4-oyl]indole oxalate] | 10 | – | –
31 | NC(=O)CCn1cc(C(=O)C2CSC(c3cccnc3)N2)c2ccccc21 (centres unmarked) [Example 121] | – | – | Ki (read-out: Ki (PAF Receptor Binding Activity), 0.6 nM [3H]C18-PAF, 60 min, 22-23 °C, Ki from IC50 (Cheng and Prusoff)): 6 nM
32 | CC(C)(C)OC(=O)n1cc(C(=O)C2CSC(c3cccnc3)N2)c2ccccc21 (centres unmarked) [Example 28, 1-tert-butoxycarbonyl-3-[2-(3-pyridinyl)thiazolid-4-oyl]indole oxalate] | 2 | – | –
33 | O=C(C1CSC(c2cccnc2)N1)n1ccc2cccnc21 (centres unmarked) [Example 19, 1-[2-(3-pyridinyl)thiazolid-4-oyl]-7-azaindole] | – | 12500 | –
34 | CC(C)(C)OC(=O)n1cc(C(=O)C2CSC(c3cccnc3)N2C=O)c2ccccc21 (centres unmarked) [Example 56, 1-tert-butoxycarbonyl-3-[2-(3-pyridinyl)-3-formylcarbonylthiazolid-4-oyl]indole] | 150 | – | –
35 | O=CN1C(C(=O)c2c[nH]c3ccccc23)CSC1c1cccnc1 (centres unmarked) [Example 90, 3-[2-(3-pyridinyl)-3-formylthiazolid-4-oyl]indole] | 270 | – | –
36 | O=C(c1ccccc1)c1cccc2c1ccn2C(=O)C1CSC(c2cccnc2)N1 (centres unmarked) [Example 7, 1-[2-(3-pyridinyl)thiazolid-4-oyl]-4-benzoylindole dihydrochloride] | 12 | – | –
37 | O=C(c1cn(C(=O)N2CCOCC2)c2ccccc12)C1CSC(c2cccnc2)N1 (centres unmarked) [Example 55, 1-(4-morpholinocarbonyl)-3-[2-(3-pyridinyl)thiazolid-4-oyl]indole] | 2 | – | –
38 | CN(C)C(=O)n1cc(C(=O)C2CSC(c3cccnc3)N2)c2ccc(Cl)cc21 (centres unmarked) [Example 89, 1-dimethylcarbamoyl-3-[2-(3-pyridinyl)thiazolid-4-oyl]-6-chloroindole] | 1 | – | –
39 | O=C(C1CSC(c2cccnc2)N1)n1ccc2ccc(F)cc21 (centres unmarked) [Example 14, 1-[2-(3-pyridinyl)thiazolid-4-oyl]-6-fluoroindole] | – | 67 | –
40 | Cc1c(C(=O)C2CSC(c3cccnc3)N2)c2ccccc2n1C(=O)N(C)C (centres unmarked) [Example 65, 1-dimethylcarbamoyl-2-methyl-3-[2-(3-pyridyl)thiazolid-4-oyl]indole] | 9 | – | –
41 | CC(=O)N1C(C(=O)c2cn(C(=O)N(C)C)c3ccccc23)CSC1c1cccnc1 (centres unmarked) [Example 100, 1-dimethylcarbamoyl-3-[2-(3-pyridinyl)-3-acetylthiazolid-4-oyl]indole] | 5200 | – | –
